The text below walks through data of US10472352B2, “Rac inhibitors” (Geneyus LLC, priority 2017, dated 2019).

In experiment [1] the test system is MCF-7 human breast cancer cell line. Put plainly: Cell Viability Assay (MCF7), PrestoBlue. The note with it: MCF7, 72 h, MCF-7 cells, three days after drug treatment. The experiment is classed as cell-based. The procedure, abridged:
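MCF-7 cells seeded 24 hours before dosing with 0 to 200 μM compound (11 concentrations, 1% DMSO final) for three days. PrestoBlue (resazurin) added to 10% final, 1 hour incubation, fluorescence at ex 560/em 590 nm; percentage living cells relative to control wells.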

In a further experiment the target is T1, Rac1 protein (Homo sapiens, UniProt P63000).
T1 construct: purchased Cytoskeleton Inc. RC01
Put plainly: Fluorescence Polarization Assay (Rac1 FP). The experiment is classed as binding. Conditions: 125 nM his-tagged Rac1, 12.5 nM Bodipy-TR GTPγS, 30 minutes at 37° C. The method in brief:
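His-tagged recombinant Rac1 (125 nM final) plus 12.5 nM Bodipy-TR GTPγS incubated with serially diluted compound for 30 min at 37 °C. Buffer: 20 mM Tris pH 7.5, 50 mM NaCl, 1 mM MgCl, 1 mM EDTA. Fluorescence polarization read at 590/625 nm excitation/emission.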

Experiment [2] has as its target His-Rac1 / GST-PBD (PAK Binding Domain) (Homo sapiens, UniProt P63000). Briefly: Rac Activation AlphaScreen Assay (Rac1 AS). The experiment is classed as biochemical. Conditions: 500 nM GTPγS, 37° C., 1 hour; 'positive' = signal generated was higher than the positive control. The procedure:
AlphaScreen® assays were performed in 96-well microplates in a final reaction volume of 60 μl. Recombinant His-Rac1, recombinant GST-PBD (PAK Binding Domain), donor and acceptor beads (PerkinElmer), and inhibitors were incubated in exchange buffer (20 mM Tris pH 7.5, 50 mM NaCl, 1 mM MgCl2, 1 mM EDTA, 500 nM GTPγS (guanosine 5′-[γ-thio]triphosphate)) at 37° C. Readings were performed on a Tecan M1000 pro microplate reader after 1 hour.

Experiment [3] has as its system estrogen receptor response gene (SDF) in MCF7 breast cancer cells. Put plainly: Inhibition of Estrogen Receptor Target Gene Transcription (SDF qPCR). The experiment is classed as cell-based. Conditions: MCF7, 10 nM estradiol, 4 hours. How it is done:
After 4 hours, RNA was harvested and converted into cDNA. qPCR analysis for SDF was performed on all samples and normalized to expression of GAPDH. The data, shown in FIG. 7, is expressed as fold change relative to SDF expression of the cFBS sample.

In experiment [4] the test system is estrogen receptor response genes Cyclin D1 and pS2 in MCF7 breast cancer cells. Put plainly: Inhibition of Estrogen Receptor Target Gene Protein Expression (immunoblot). The experiment is classed as cell-based. Conditions: MCF7, 10 nM E2, 18 hours. How it is done:
After 18 hours, protein was harvested. SDS-PAGE followed by immunoblotting of samples was performed using standard techniques. Protein lysates were immunoblotted for Estrogen Receptor (ER), Cyclin D1, pS2, and Actin.

For the next experiment, the system named is MCF7 breast cancer cells. Put plainly: Tumor Burden, MCF7 tumors in mice. The experiment is classed as in vivo, Nod/Scid-gamma null immunocomprimised mice. How it is done:
MCF7 breast cancer cells grown were innoculated into Nod/Scid-gamma null immunocomprimised mice. The resulting tumors were allowed to reach approximately 100 mm^3 in size and then mice were randomized into vehicle, Faslodex®, 0032661, or Faslodex® plus 0032661 treatment groups. Faslodex® treated mice were dosed with 500 ug Faslodex® once a week via intramuscular injection. 0032661 treated mice were dosed with 35 mg/kg 0032661 five days a week via intraparatoneal injection. Tumors were measured by calipers twice a week.

Experiment [5] deals with androgen receptor response gene (PSA) in LNCaP prostate cancer cells. Briefly: Inhibition of Androgen Receptor Target Gene Transcription (PSA qPCR). Conditions: 10 nM DHT, 4 hours, 10 uM bicalutamide, 10 uM enzalutamide, 12.5 or 25 uM 0032661. The experiment is classed as cell-based. How it is done:
After 4 hours, RNA was harvested and converted into cDNA. qPCR analysis for PSA was performed on all samples and normalized to expression of GAPDH. The data, shown in FIG. 11, is expressed as fold change relative to PSA expression of the cFBS sample.

Experiment [6] concerns Androgen Receptor (AR) luciferase reporter in LNCaP prostate cancer cells. Put plainly: Inhibition of Androgen Receptor Luciferase Expression. The experiment is classed as cell-based. Conditions: 10 nM DHT, 4 hours, 1 uM bicalutamide, 1 uM enzalutamide, 5 or 10 uM 0032661. The procedure:
After 4 hours, cell lysate was harvested. 50 μg protein lysates were used in a luciferase assay. The data, shown in FIG. 12, is expressed as relative luciferase units (RLU).

Experiment [7] relates to PSA in LNCaP prostate cancer cells. Briefly: Inhibition of Increased Protein Levels of PSA (immunoblot). The experiment is classed as cell-based. The note with it: 10 nM DHT, 18 hours, 5 uM enzalutamide, 10, 15 or 20 uM 0032661. The procedure: After 18 hours protein was harvested. SDS-PAGE followed by immunoblotting of samples was performed using standard techniques. Protein lysates were immunoblotted for the Androgen Receptor (AR), PSA, and Actin.

Experiment [8] concerns Androgen Receptor (AR) luciferase reporter in LNCaP prostate cancer cells. Briefly: LNCaP ARE Luciferase Assay. The experiment is classed as cell-based. Conditions: 10 nM DHT, 4 hours, 1 uM bicalutamide, 1 uM enzalutamide, 5 or 10 uM 0032661. How it is done: (§1) LNCaP prostate cancer cells as well as LNCaP cells that overexpress the oncogenic androgen receptor splice variant (designated ARV7) were engineered to express an Androgen Receptor (AR) luciferase reporter (SABiosciences). […] After 4 hours, cell lysate was harvested. 50 μg protein lysates were used in a luciferase assay.

Experiment [9] relates to androgen receptor splice variant (ARV7) in LNCaP cells. Briefly: LNCaP ARE Luciferase Assay, ARV7 cells. The experiment is classed as cell-based. The note with it: LNCaP cells overexpressing ARV7, 10 nM DHT, 4 hours; 5 or 10 uM 0032661. The procedure: as §1
[10] abbreviates: 1 uM fulvestrant, 5 or 10 uM 0032661.

In the case of `FC(F)(F)c1ccc2c(SCCCCCCn3cnc(CN4CCOCC4)c3)ccnc2c1` [Compound 0032661, 4-[[1-[6-[[7-(trifluoromethyl)-4-quinolyl]sulfanyl]hexyl]imidazol-4-yl]methyl]morpholine], the IC50 was determined as 6.6 µM in [1], 3.25 µM at Rac1 protein and 44.8 µM in experiment [2]. Also, the “SDF gene expression, combination” value in experiment [3] (1 uM fulvestrant plus 5 uM 0032661) is recorded as “reduces SDF gene expression more than either single treatment alone”. In addition, the “estrogen receptor target gene transcription (SDF)” value in [3] (setting [10]) was “inhibit the estrogen receptor target gene transcription”. In addition, in experiment [4] (1 uM fulv plus 5 uM 0032661), the “estrogen receptor target gene protein expression, combination” value is given as “reduces estrogen receptor target gene protein expression more than either single treatment alone”. In experiment [4] (setting [10]), the “protein levels of estrogen receptor target genes (Cyclin D1, pS2)” value is “inhibit the increase in protein levels of estrogen receptor target genes”. In the experiment on MCF7 breast cancer cells (500 ug Faslodex once a week intramuscular plus 35 mg/kg 0032661 five days a week), the “tumor burden, combination” value is “reduces tumor burden more than either single treatment alone”. For the same molecule, in the experiment with MCF7 breast cancer cells (35 mg/kg five days a week, intraperitoneal), the “anti-tumoral effect (tumor size by calipers)” value is “strong anti-tumoral effects”. For the same molecule, in experiment [5], the “androgen receptor target gene transcription (PSA)” value is listed as “inhibit the androgen receptor target gene transcription”. In experiment [6], the “androgen receptor luciferase expression (RLU)” value is given as “inhibit the androgen receptor luciferase expression”. Also, the “increase in protein levels of PSA” value in experiment [7] is “inhibit the increase in protein levels of PSA”. In addition, the “androgen receptor luciferase expression (fold activation)” value in experiment [8] is recorded as “inhibit the androgen receptor luciferase expression”. The “luciferase expression of the ARV7 splice variant” value in [9] is given as “inhibited luciferase expression of the ARV7 splice variant”.
